In the METLIN SMRT retention time set (Domingo-Almenara et al. 2019):

Assay: gradient 5% acetonitrile 3 min, to 50% in 2 min, to 85% in 15 min, held 3 min, 100 µL/min
Conditions: column: Zorbax Extend-C18 2.1 x 50 mm; eluents: water / acetonitrile, 0.1% formic acid
Method in brief: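 Pure standards were run in mixtures of ~100 molecules by HPLC coupled to a quadrupole time-of-flight mass spectrometer. The column was a Zorbax Extend-C18 (2.1 × 50 mm, 1.8 μm) at 100 μL/min, with water and acetonitrile each containing 0.1% formic acid, in positive and negative ionization mode. Dead and dwell volumes were 40 μL and 900 μL. Retention time was taken from computationally picked adduct peaks, each manually inspected, with data collected over 3 months.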

`CCc1noc(NC(C)=O)c1-c1ccc(OC)c(S(=O)(=O)Nc2ccc(OC)c(Cl)c2)c1` gave an RP-LC retention time of 775 s.

Work on `Cc1ccccc1NC(=O)C1CCCN(c2ncnc3c2nc2n3CCCCC2)C1` (stereo not drawn) yielded an RP-LC retention time of 766 s.

Molecule `Cc1nnc2c(NC(=O)Cc3cccc(C(F)(F)F)c3)cccn12` has an RP-LC retention time of 785 s.

Molecule `COc1ccc(Cl)cc1NS(=O)(=O)c1cc(-c2c(C)noc2NC(C)=O)ccc1OC` has an RP-LC retention time of 823 s.

In the case of `Cc1ccn2cc(-c3ccc(NC(=O)Nc4ccccc4)cc3)nc2n1`, the RP-LC retention time is reported as 640 s.

`CCNC(=O)C1CCCN(c2nc3ncn(CC(=O)Nc4ccc(F)cc4Cl)c(=O)c3s2)C1` (stereo not drawn) showed an RP-LC retention time of 681 s.

`Fc1ccc(Cn2cc(-c3noc(-c4ccccc4)n3)nn2)cc1` showed an RP-LC retention time of 994 s.

In the case of `COc1ccc(OC)c(CNC(=O)Cc2nnc(-c3cccs3)o2)c1`, the RP-LC retention time is reported as 700 s.

Molecule `O=C(COc1ccc(Cl)cc1)Oc1ccc2nc(N3CCOCC3)sc2c1` has an RP-LC retention time of 971 s.

Work on `CCc1nc(-c2ccc(-c3noc(CN4C(=O)COc5ccc(Cl)cc54)n3)cc2)cs1` yielded an RP-LC retention time of 1270 s.

Molecule `COc1ccc(C(=O)Nc2c(C(=O)Nc3ccccc3OC)oc3cccnc23)cc1` has an RP-LC retention time of 783 s.

With `CCCCN(C)C(=O)Cn1c(=O)c(S(=O)(=O)c2ccccc2)cc2cc(C)ccc21` the RP-LC retention time was 953 s.

For `Cc1csc(-c2cc(S(=O)(=O)N3CCN(c4ccccc4)CC3)c(C)s2)n1`, the RP-LC retention time was 1160 s.

In the case of `Cc1ccc(S(=O)(=O)N2CCC(C(=O)NCc3csc(-c4ccccc4)n3)CC2)cc1C`, the RP-LC retention time is reported as 989 s.

For `Cc1cccc(NC(=O)Cn2nc3nc(N4CCCC(C)C4)ccn3c2=O)c1` (stereo not drawn), the RP-LC retention time was 791 s.

Molecule `Cc1cn(C)c(CC(=O)NCc2ccco2)c1C(=O)O` has an RP-LC retention time of 671 s.

For `CCN(CC)CCNc1ccc2nc(C)n3c4ccc(OC)cc4c(=O)c1c23`, the RP-LC retention time was 610 s.

With `CCc1nc(-c2csc(S(=O)(=O)N3CCCC(C(=O)N4CCc5ccccc5C4)C3)c2)no1` (stereo not drawn) the RP-LC retention time was 1060 s.

In the case of `CCOc1ccc(NC(=O)Cc2nnc(-c3ccncc3)o2)cc1`, the RP-LC retention time is reported as 670 s.

`Cc1ccc(Cn2c(=O)c(N3CCCC(C(=O)NCCc4ccco4)C3)nc3ccccc32)cc1` (stereo not drawn) showed an RP-LC retention time of 1090 s.

In the case of `CCOc1ccc(S(=O)(=O)N(CC)CC(=O)N2CCNCC2)cc1`, the RP-LC retention time is reported as 623 s.

For `COCCCNC(=O)c1ccc2c(c1)nc(C)n2-c1ccc(Br)cc1`, the RP-LC retention time was 629 s.

Molecule `Cc1nc2ccn(Cc3cccnc3)c(=O)c2cc1C(=O)NCCC(C)C` has an RP-LC retention time of 605 s.

In the case of `CCCn1nc(CNC(=O)c2ccc(C#N)cc2)c2ccccc21`, the RP-LC retention time is reported as 844 s.

`Cc1ccc(NC(=O)Cn2c(=O)n(-c3ccccc3)c(=O)c3c2cc(C)n3C)cc1` gave an RP-LC retention time of 827 s.

Work on `CCOc1ccc(NC(=O)Nc2nccn(-c3ccc(C(C)C)cc3)c2=O)cc1` yielded an RP-LC retention time of 1160 s.

Molecule `O=C(CN1C(=O)C2CCCCN2c2ccc(S(=O)(=O)N3CCCCC3)cc21)NC1CCCCC1` (stereo not drawn) has an RP-LC retention time of 1030 s.

Work on `Cc1cccc(CNC2=NCCNC23CCN(S(=O)(=O)c2cc(C)cc(C)c2)CC3)c1` yielded an RP-LC retention time of 787 s.

Molecule `Cc1cccc(N2C(=O)CN(CCc3ccc(F)cc3)[C@H]3CS(=O)(=O)C[C@H]32)c1` has an RP-LC retention time of 839 s.

`Cc1cc(-c2ccc(C)c(S(=O)(=O)Nc3ccc(Cl)cc3)c2)n[nH]1` showed an RP-LC retention time of 898 s.

`COc1ccc(NC(=O)N2[C@H]3CC[C@@H]2c2cnc(C)nc2C3)cc1OC` gave an RP-LC retention time of 611 s.

With `Cc1ccc2nc(NC(=O)CN3CCC(C(N)=O)CC3)sc2c1` the RP-LC retention time was 592 s.

Molecule `COc1ccc(NC(=O)c2nc(N3CCCC3)c3c(C)cc(C)nc3n2)c(C)c1` has an RP-LC retention time of 666 s.

In the case of `COc1ccc(NC(=O)C2CC(=O)N(c3n[nH]c4ccccc34)C2)cn1` (stereo not drawn), the RP-LC retention time is reported as 646 s.

`O=C(NCc1cccnc1-c1ccc(F)cc1)c1cccc(Br)c1` showed an RP-LC retention time of 734 s.

Molecule `CC(C)Cn1cc(CCNS(=O)(=O)c2cccc(Cl)c2)c2cccnc21` has an RP-LC retention time of 985 s.

Work on `CC1CCN(S(=O)(=O)N2CCCC(C(=O)NC3CCN(Cc4ccccc4)CC3)C2)CC1` (stereo not drawn) yielded an RP-LC retention time of 713 s.

`Cc1ccccc1CN1C(=O)N(c2ccc(F)cc2)c2ncccc2S1(=O)=O` showed an RP-LC retention time of 1100 s.

`CC(Oc1cccc(Cl)c1)C(=O)NCC1(C)CCOCC1` (stereo not drawn) gave an RP-LC retention time of 816 s.

`CCOc1nccnc1N1CCC(NC(=O)Cc2cccnc2)C1` (stereo not drawn) showed an RP-LC retention time of 534 s.

In the case of `CCCCn1c(CN(C)C(=O)c2ccco2)nc2ccccc21`, the RP-LC retention time is reported as 648 s.

For `Cn1nc(N2CCC(NC(=O)c3ccsc3)C2)ccc1=O` (stereo not drawn), the RP-LC retention time was 640 s.

`CS(=O)(=O)N1CCCc2cc(C(=O)Nc3ccc(Br)cc3F)ccc21` showed an RP-LC retention time of 951 s.

In the case of `CCOC(=O)c1c(C)c(CCC(=O)N2CCN(CC)CC2)n(CC)c1C`, the RP-LC retention time is reported as 631 s.

Work on `O=C1CC(c2noc(-c3cccc(Cl)c3)n2)CN1c1ccc(F)cc1` (stereo not drawn) yielded an RP-LC retention time of 1030 s.

With `COc1ccc(N2C(=O)C3N=NN(c4ccc(F)cc4)C3C2=O)cc1` (stereo not drawn) the RP-LC retention time was 923 s.

For `Cc1ccc2c(c1)cc(S(=O)(=O)c1ccccc1)c(=O)n2CC(=O)NCCC(C)C`, the RP-LC retention time was 938 s.

Molecule `CCn1c(CCNC(=O)c2cc(F)ccc2F)nc2cccnc21` has an RP-LC retention time of 641 s.

Molecule `CNC(=O)c1nc(-c2ccc(C)cc2)n2c1CCCCC2` has an RP-LC retention time of 702 s.

`COc1ccc(N2CC(c3nc(-c4ccccc4)no3)CC2=O)cc1OC` (stereo not drawn) gave an RP-LC retention time of 669 s.

Molecule `Cc1ccc(C(=O)N2CCCCCCNC(=O)[C@@H]3CCC[C@@H]32)s1` has an RP-LC retention time of 792 s.

In the case of `N#Cc1cccc(-c2cn3c(n2)N(C(=O)COc2ccccc2)CCC3)c1`, the RP-LC retention time is reported as 961 s.

With `COc1cc(OC)cc(C(=O)Nc2cc(-c3cn4cccnc4n3)ccc2OC)c1` the RP-LC retention time was 708 s.

`CCCNC(=O)C1CCCN(c2ccc(SCC(=O)Nc3cccc(Cl)c3C)nn2)C1` (stereo not drawn) gave an RP-LC retention time of 720 s.

Molecule `COc1cc(C(=O)N2CCN(c3cc(=O)n(C(C)C)c(=O)n3C(C)C)CC2)cc(OC)c1OC` has an RP-LC retention time of 800 s.

`O=C(Nc1cnc(-c2cccc(Cl)c2)nc1)c1ccc(Br)o1` gave an RP-LC retention time of 1140 s.

Molecule `C[C@H](NC(=O)C1CCCN(S(=O)(=O)c2ccc(F)cc2)C1)C(=O)O` (stereo partly drawn) has an RP-LC retention time of 669 s.

`CNC(=O)[C@H]1O[C@@H](n2cnc3c(NCc4cccc(I)c4)ncnc32)C(O)C1O` (stereo partly drawn) gave an RP-LC retention time of 721 s.

`CC1CCC2(CC1)NC(=O)N(CC(=O)NCc1ccc3c(c1)OCO3)C2=O` (stereo not drawn) gave an RP-LC retention time of 749 s.

For `CCN(CC)S(=O)(=O)c1cccc(-c2nnc(-c3ccc(Cl)cc3)o2)c1`, the RP-LC retention time was 1140 s.

In the case of `COc1ccc(-c2noc(-c3nn(-c4ccc(OC)cc4)ccc3=O)n2)cc1`, the RP-LC retention time is reported as 827 s.

With `CCn1c(=O)c(Nc2ccc(C)c(Cl)c2)nc2ccncc21` the RP-LC retention time was 649 s.

For `CN(C)c1cc(OC2CCN(C(=O)c3cnn4cccnc34)C2)ncn1` (stereo not drawn), the RP-LC retention time was 578 s.

With `COc1cc(CNc2nnc(-c3nnc(C4CC4)o3)c3ccccc23)cc(OC)c1` the RP-LC retention time was 878 s.

In the case of `O=c1c2cc3c(cc2nc(SCc2nc(-c4cccc(F)c4)no2)n1CC1CCCO1)OCO3` (stereo not drawn), the RP-LC retention time is reported as 1110 s.

Work on `Cc1ccc(NC(=O)Cn2c(=O)cc(-c3nc(C4CC4)no3)c3ccccc32)cc1F` yielded an RP-LC retention time of 1020 s.

Molecule `Cc1ccc(-c2nc(C3CCN(S(=O)(=O)c4ccc(C)c(C)c4)CC3)no2)cc1` has an RP-LC retention time of 1320 s.

Work on `Cc1ccc(C(=O)N2CCCn3nc(-c4ccc(Cl)cc4)cc3C2)s1` yielded an RP-LC retention time of 931 s.

`CCOc1ccc(CNC(=O)c2cnc(N3CCN(C4CCCCC4)CC3)nc2N)cc1` gave an RP-LC retention time of 658 s.

In the case of `Cc1c(C(=O)C(=O)N2CCc3ccccc3C2)c2ccccc2n1C`, the RP-LC retention time is reported as 913 s.

`CC(=O)Nc1ccc(OC(=O)c2ccccc2OC(C)=O)cc1` gave an RP-LC retention time of 853 s.

Work on `Cc1nc(-n2cccc2)sc1C(=O)NCc1ccc(C(C)C)cc1` yielded an RP-LC retention time of 1130 s.

`Cc1c(Cl)ccc2c(=O)c3c([nH]c12)CCN(CC(=O)Nc1cccc(Cl)c1)C3` gave an RP-LC retention time of 704 s.

Molecule `O=C(c1ccc2c(c1)OCO2)N1CCN(c2nnc3ccccn23)CC1` has an RP-LC retention time of 616 s.

Work on `COc1cc(CN(CC2CCCO2)C(=O)c2oc3ccccc3c2C)cc(OC)c1OC` (stereo not drawn) yielded an RP-LC retention time of 1030 s.

Work on `O=C(Nc1ccc(F)cc1)C1CCCN(S(=O)(=O)Cc2ccc(F)cc2)C1` (stereo not drawn) yielded an RP-LC retention time of 933 s.

Molecule `COc1ccc(-c2noc(COC(=O)C3=CN(C)S(=O)(=O)N=C3C)n2)cc1` has an RP-LC retention time of 926 s.

In the case of `O=C(CN1C(=O)CCC1=O)Nc1ncc(S(=O)(=O)c2ccc([N+](=O)[O-])cc2)s1`, the RP-LC retention time is reported as 706 s.

In the case of `O=C(NCc1ccc(F)cc1)C1CCCN(c2ccc(-c3ccco3)nn2)C1` (stereo not drawn), the RP-LC retention time is reported as 622 s.

In the case of `O=c1n(Cc2ccccc2)nc2n1CCN(S(=O)(=O)c1ccccc1)CC2`, the RP-LC retention time is reported as 793 s.

`CCc1ccccc1NC(=O)CSc1nnc2c3cc(-c4ccc(C)c(C)c4)nn3ccn12` showed an RP-LC retention time of 1050 s.

`O=S(=O)(NCCc1c[nH]c2ncccc12)c1ccc(Br)cc1` gave an RP-LC retention time of 684 s.

Work on `Cc1ccc(C(=O)Nc2c(-c3ccc(F)cc3)nc3ccccn23)cc1[N+](=O)[O-]` yielded an RP-LC retention time of 701 s.

`O=C(CN1CCC2(CC1)N=C(c1ccc(Cl)cc1)C(=O)N2)Nc1ccc2c(c1)OCO2` showed an RP-LC retention time of 681 s.

Molecule `Cc1noc(C)c1CNC(=O)c1ccccn1` has an RP-LC retention time of 648 s.

Work on `Cc1ccc2cc(CN3CCC4(CCC4O)CC3)c(=O)[nH]c2c1` (stereo not drawn) yielded an RP-LC retention time of 590 s.

`COc1ccc(-c2ccc(=O)n(Cc3nc(-c4ccc(F)cc4)no3)n2)cc1OC` showed an RP-LC retention time of 892 s.

For `COc1ccccc1CN1CN=C(Nc2nc(C)c3ccc(C)cc3n2)NC1`, the RP-LC retention time was 568 s.
